# From US12139459B2, “Enhancer of fertilization function of sperm” (TOHOKU UNIVERSITY, priority 2018, dated 2024)
# What was measured:
# [1] = tested on: sperms of male C57/B6 mice (fertilization function of a mammal sperm); test: Semination by in vitro fertilization with sperms precultured in test culture medium; two-cell egg formation; type: cell-based
smiles,measurement,setting,value
O=C(CC(C(=O)O)c1c[nH]c2ccc(F)cc12)c1ccc(F)cc1F (centres unmarked),melting point,,207 to 208 °C
"O=C(CC(C(=O)O)c1c[nH]c2cccc(Cl)c12)c1ccc(F)cc1F (centres unmarked) [(2-1), 2-(4-chloro-1H-indol-3-yl)-4-(2,4-difluorophenyl)-4-oxo-butanoic Acid]",melting point,,203 to 204 °C
"O=C(CC(C(=O)O)c1c[nH]c2ccc(Cl)cc12)c1ccc(F)cc1F (centres unmarked) [(3-2), 2-(5-chloro-1H-indol-3-yl)-4-(2,4-difluorophenyl)-4-oxo-butanoic Acid]",melting point,,236 to 239 °C
"Cc1ccc2[nH]cc(C(CC(=O)c3ccc(F)cc3F)C(=O)O)c2c1 (centres unmarked) [(3-3), 4-(2,4-difluorophenyl)-2-(5-methyl-1H-indol-3-yl)-4-oxo-butanoic Acid]",melting point,,200 to 202 °C
"COc1ccc2[nH]cc(C(CC(=O)c3ccc(F)cc3F)C(=O)O)c2c1 (centres unmarked) [(3-4), 4-(2,4-difluorophenyl)-2-(5-methoxy-1H-indol-3-yl)-4-oxo-butanoic Acid]",melting point,,205 to 206 °C
"O=C(CC(C(=O)O)c1c[nH]c2cc(OCc3ccccc3)ccc12)c1ccc(F)cc1F (centres unmarked) [(4-2), 2-(6-benzyloxy-1H-indol-3-yl)-4-(2,4-difluorophenyl)-4-oxo-butanoic Acid]",melting point,,177 to 178 °C
"O=C(CC(C(=O)O)c1c[nH]c2c(Cl)cccc12)c1ccc(F)cc1F (centres unmarked) [(5-1), 2-(7-chloro-1H-indol-3-yl)-4-(2,4-difluorophenyl)-4-oxo-butanoic Acid]",melting point,,225 to 227 °C
"COc1cccc2c(C(CC(=O)c3ccc(F)cc3F)C(=O)O)c[nH]c12 (centres unmarked) [(5-2), 4-(2,4-difluorophenyl)-2-(7-methoxy-1H-indol-3-yl)-4-oxo-butanoic Acid]",melting point,,181 to 183 °C
"Cn1cc(C(CC(=O)c2ccc(F)cc2F)C(=O)O)c2ccccc21 (centres unmarked) [(6-1), 4-(2,4-difluorophenyl)-2-(1-methyl-1H-indol-3-yl)-4-oxo-butanoic Acid]",melting point,,192 to 193 °C
"O=C(CC(C(=O)O)c1c[nH]c2ccccc12)c1ccc(F)cc1F (centres unmarked) [Compound #5, 4-(2,4-Difluorophenyl)-2-(1H-indol-3-yl)-4-oxo-butanoic Acid]",The number of two-cell eggs,"[1]; sperms precultured 1 hour in TYH culture medium containing 1 μM compound #5, 11 ova",11
same,Fertilization rate (%),"[1]; sperms precultured 1 hour in TYH culture medium containing 1 μM compound #5, two-cell eggs observed 24 to 28 hours after semination, control without compound 40%",100%
same,The number of two-cell eggs,"[1]; sperms precultured 1 hour in TYH culture medium containing 10 μM FCCP and 1 μM compound #5, 10 ova",5
same,Fertilization rate (%),"[1]; sperms precultured 1 hour in TYH culture medium containing 10 μM FCCP and 1 μM compound #5, FCCP alone 30%",50%
"CCCn1cc(C(CC(=O)c2ccc(C)cc2C)C(=O)O)c2ccccc21 (centres unmarked) [Compound #6, 4-(2,4-Dimethylphenyl)-2-(1-propyl-1H-indol-3-yl)-4-oxo-butanoic Acid]",melting point,,139 to 141 °C
"O=C(CC(C(=O)O)c1c[nH]c2ccccc12)c1ccccc1 (centres unmarked) [Compound #20, 4-Phenyl-2-(1H-indol-3-yl)-4-oxo-butanoic Acid]",melting point,,149 to 150 °C
"CCCCOc1ccc2cccc(CC(=O)O)c2c1 [Compound #33, α-(7-Butoxy-1-naphthalenyl)-acetic Acid]",melting point,,102 to 104 °C
"CCCCCOc1ccc2cccc(CC(=O)O)c2c1 [Compound #34, α-(7-Pentoxy-1-naphthalenyl)-acetic Acid]",melting point,,104 to 106 °C
"CCOc1ccc2[nH]cc(CC(=O)O)c2c1 [Compound #37, 5-Ethoxy-3-indoleacetic Acid]",melting point,,86 to 92.7 °C
"CCCOc1ccc2[nH]cc(CC(=O)O)c2c1 [Compound #38, 5-(1-Propoxy)-3-indoleacetic Acid]",melting point,,133.6 to 136.8 °C
"CCCCOc1ccc2[nH]cc(CC(=O)O)c2c1 [Compound #39, 5-(1-Butoxy)-3-indoleacetic Acid]",melting point,,137.8 to 141.1 °C
"O=C(CC(C(=O)O)c1c[nH]c2cc(F)ccc12)c1ccc(F)cc1F (centres unmarked) [Compound (4-1), 4-(2,4-difluorophenyl)-2-(6-fluoro-1H-indol-3-yl)-4-oxo-butanoic Acid]",melting point,,210 to 214 °C
"N#CC(C#N)=NNc1ccc(OC(F)(F)F)cc1 [FCCP, carbonyl cyanide-p-trifluoromethoxyphenylhydrazone, reference compound]",Fertilization rate (%),"[1]; sperms precultured 1 hour in TYH culture medium containing 10 μM FCCP (uncoupler), control without FCCP 47.4%",30%
same,The number of two-cell eggs,"[1]; sperms precultured 1 hour in TYH culture medium containing 10 μM FCCP, 10 ova",3
